In patent publication US20020032183A1, “Use of (di-substituted-phenyl)-pyrimidinyl-imidazole derivatives as JNK-inhibitors” (priority 2000, published 2002):

Key:
Assay type in all cases: cell-based
[1] = tested on: Rat superior cervical ganglion neurons; assay: Sympathetic neuronal survival assay (no NGF exposure; GAP-43 ELISA and cell counts); settings: for Survival, ELISA Data Mean / Survival, Cell Counts Mean: 48 hours; for Survival, ELISA Data Mean: GAP-43 ELISA; for Survival, Cell Counts Mean: immunostained neurons per well
Protocol: (§1) Activation of c-jun-N-terminal kinase (JNK) has been implicated in apoptosis in sympathetic neurons. An inhibitor of JNK, Example 2, was tested for neuroprotective effects in two models of sympathetic neuronal cell death.
In the first model, ganglia were dissociated and plated directly into culture plates in the presence of compound for 48 hours, then fixed and survival assayed using an ELISA for GAP-43. This model will hereafter be referred to as the ‘survival assay’.
(§2) Ganglia were enzymatically dissociated using 0.25% trypsin for 45 minutes. The trypsin was then inhibited using Dulbecco's MEM (DMEM) supplemented with 10% fetal bovine serum, and the cells mechanically triturated using a pipette tip to form a single cell suspension. Neurons in the suspension were counted using a haemocytometer, and plated at a density of 3000-5000 neurons per well in poly-D-lysine and laminin coated 96 well tissue culture clusters in DMEM supplemented with B27 serum substitute. Cultures were then incubated at 37° C./5% CO2. One hour following plating, cultures were either treated with NGF 25 ng/ml or with L-790,984 at a range of concentrations for the NGF deprivation and survival assays respectively.
(§3) Cultures for the NGF deprivation assay were returned to the incubator for 4 days. Following this, the medium was aspirated, plates washed once with DMEM/B27, and the cultures treated with Example 2 at concentrations ranging from 1 nM to 10 μM, together with an anti-NGF blocking antibody at 250 ng/ml. Cultures were then returned to the incubator for a further 72 hours prior to fixation and survival quantification. Cultures treated with Example 2 immediately for the survival assay were returned to the incubator for 48 hours; cultures were then fixed and survival quantified using the GAP-43 ELISA.
(§4) Cultures were fixed by the addition of an equal volume 4% paraformaldehyde to each well for 10 minutes; this was then aspirated, and replaced by a further volume of 4% paraformaldehyde for a further 20 minutes at room temperature. Plates were then washed three times with PBS/0.3% TX100, and non-specific binding sites blocked by the addition of 5% normal horse serum (NHS) in PBS/0.3% TX100. Plates were incubated at room temperature for one hour, then the blocking serum was aspirated without washing and replaced with primary antibody. The primary antibody used was a mouse monoclonal antibody raised against Growth Associated Protein 43 (Sigma), prepared at a dilution of 1:500 in PBS/0.3% TX100/5% NHS. Primary antibody was added to all sample wells, with four control wells returned to blocking serum to act as minus primary control. Plates were then refrigerated overnight at 4° C. The next day, plates were washed three times with PBS/0.3 TX100 and secondary antibody added. The secondary antibody used was peroxidase conjugated sheep anti-mouse IgG, and was added at a dilution of 1:1000 in PBS/0.3% TX100/5% NHS. Plates were incubated for 1 hour at room temperature, then washed three times with PBS/0.3% TX100, and K-Blue insoluble peroxidase substrate added for 30 minutes at room temperature. The optical density of the plates was then read at 650 nm, and the survival of neurons calculated and expressed as percentage of the control response.
(§5) Cell counts were performed on one sample plate for each model of sympathetic neuronal cell death, by the addition of a tertiary antibody to the plate, followed by avidin-biotin complex and an insoluble peroxidase substrate. Following quantification of optical density, plates were washed three times in PBS/0.3% TX100, and non-specific sites blocked using PBS/0.3% TX100/5% normal rabbit serum (“NRS”). Plates were incubated for one hour at room temperature, then the blocking serum was aspirated and replaced with biotinylated rabbit anti-sheep IgG at a dilution of 1:500 in PBS/0.3% TX10O/5% NRS. […]

[2] = tested on: Rat superior cervical ganglion neurons; assay: Sympathetic neuronal NGF deprivation assay (GAP-43 ELISA and cell counts); settings: for Survival, Cell Counts Mean / Survival, ELISA Data Mean: 72 hours; for Survival, ELISA Data Mean: GAP-43 ELISA
Protocol: as §1
In the second model, ganglia were dissociated and plated in the presence of NGF 25 ng/ml for 4 days. The NGF was then removed by washing and application of a blocking antibody, and L-790,984 coadministered for 72 hours. Survival was then assayed using the GAP-43 ELISA. This model will be referred to hereafter as the ‘NGF deprivation assay’.
as §2, §3, §4, §5

[3] = tested on: mouse cerebellar granule neurons; assay: Detection of neuronal apoptosis in mouse cerebellar granule neurons (low K+); settings: Neuron, low (5 mM) K+, serum-free, 8 h, FIG. 1, read-out: IC50 for inhibition of neuronal apoptosis
Protocol: 1. Dissect out cerebella from 7-9 day old CD-I mouse pups; remove meninges.
2. Mince and dissociate with trypsin. Halt trypsinization with Dnase I and egg white trypsin inhibitor.
3. Individual cells are obtained by trituration with a pasteur pipet.
4. Cells were resuspended in cell culture media [(cMEM) E-MEM), 25 mM glucose, 10% fetal bovine serum, 2 mM glutamine, 100 μg/mL gentamycin, 25 mM KCl] and seeded at 1.2×10^5 cells per well onto 96-well microplates pre-coated with poly-D-lysine.
5. Cultures were incubated at 37° C. in 6% CO2, and were used for experiments on day 5-7 in vitro.
1. Replace media in column 1 with serum-free cMEM. Replace medium in columns 2-12 with serum-free cMEM with low (5 mM) K+.
2. Add drug titrations (serial diluted in DMSO; final 1% DMSO). Incubate 8 h @ 37° C.
3. Spin plate @ 1500 rpm 10 min., remove media and add lysis buffer.
4. Incubate 30 min. room temp. shaking.
5. Spin plate @ 1500 rpm 10 min., transfer supernatant to fresh plate. Store @ 4° C.
6. Transfer 5 μL supernatant and 45 μL EIA reagent to EIA strip plate (positive control standards in column 12); incubate @ room temp 2 h.
7. Wash strip plate with PBS using the plate washer.
8. Add 150 μL K-blue substrate (ELISA Technologies, Inc., Gainsville, Fla.); stop using 50 μL Red Stop. Read plate @ 650 nm.

CCCn1c(C2CCN(C)CC2)nc(-c2ccc(Cl)c(Cl)c2)c1-c1ccnc(NC2CC2)n1 [Example 2, Cyclopropyl-{4-[5-(3,4-dichlorophenyl)-2-[(1-methyl)-piperidin]-4-yl-3-propyl-3H-imidazol-4-yl]-pyrimidin-2-yl}amine]
Survival, ELISA Data Mean ([1]; 0.01 μM): 112.10 | Survival, Cell Counts Mean ([1]; 0.01 μM): 115.50 | Survival, ELISA Data Mean ([1]; 0.03 μM): 99.19 | Survival, Cell Counts Mean ([1]; 0.03 μM): 127.25 | Survival, ELISA Data Mean ([1]; 0.1 μM): 131.45 | Survival, Cell Counts Mean ([1]; 0.1 μM): 170.50 | Survival, ELISA Data Mean ([1]; 0.3 μM): 209.68 | Survival, Cell Counts Mean ([1]; 0.3 μM): 267.50 | Survival, ELISA Data Mean ([1]; 1 μM): 350.81 | Survival, Cell Counts Mean ([1]; 1 μM): 363.00 | Survival, ELISA Data Mean ([1]; 3 μM): 270.16 | Survival, Cell Counts Mean ([1]; 3 μM): 321.00 | Concentrations at which the survival response declines ([1]; data not shown): above 3 μM | Concentrations at which the survival response was significant ([1]; quantified by ELISA): ≥ 300 nM | Survival, Cell Counts Mean ([2]; 0.001 μM + anti-NGF 250 ng/ml): 82.00 | Survival, ELISA Data Mean ([2]; 0.001 μM + anti-NGF 250 ng/ml): 35.44 | Survival, Cell Counts Mean ([2]; 0.01 μM + anti-NGF 250 ng/ml): 81.00 | Survival, ELISA Data Mean ([2]; 0.01 μM + anti-NGF 250 ng/ml): 28.20 | Survival, Cell Counts Mean ([2]; 0.1 μM + anti-NGF 250 ng/ml): 53.75 | Survival, ELISA Data Mean ([2]; 0.1 μM + anti-NGF 250 ng/ml): 22.89 | Survival, Cell Counts Mean ([2]; 0.5 μM + anti-NGF 250 ng/ml): 140.25 | Survival, ELISA Data Mean ([2]; 0.5 μM + anti-NGF 250 ng/ml): 60.15 | Survival, Cell Counts Mean ([2]; 1 μM + anti-NGF 250 ng/ml): 200.00 | Survival, ELISA Data Mean ([2]; 1 μM + anti-NGF 250 ng/ml): 102.79 | Concentrations at which the survival response was significant ([2]; measured by ELISA): ≥ 500 nM | Concentrations at which the survival response was significant ([2]; measured by cell counts): ≥ 500 nM | IC50 [3]: 100 nM
